ChEMBL document CHEMBL4325873, “Decreasing the CYP2D6 contribution to metabolism of a CK1ε inhibitor” (Bioorg Med Chem Lett, 2018)

Experiments:
[1] = molecular target: Casein kinase I isoform epsilon (Homo sapiens, UniProt P49674); test: Inhibition of human CK1 epsilon using casein as substrate after 2 hrs in presence of [33P]-ATP by scintillation counting analysis
[2] = Drug metabolism in human liver microsomes; format: ADME, Microsome; conditions: read-out: Drug metabolism
CYP3A4 = CYP3A4 (Homo sapiens, UniProt P08684); test: Drug metabolism in human liver microsomes assessed as CYP3A4-mediated drug metabolism in presence of ketoconazole; format: ADME; conditions: with ketoconazole, read-out: Drug metabolism
Cytochrome P450 2D6 [3] = molecular target: T1, Cytochrome P450 2D6 (Homo sapiens, UniProt P10635); test: Drug metabolism assessed as recombinant CYP2D6 (unknown origin)-mediated 4-(3-(pyridin-4-yl)-6-(4-(pyrrolidin-1-yl)piperidin-1-yl)imidazo[1,2-b]pyridazin-2-yl)phenol formation; format: ADME; conditions: recombinant enzyme
Cytochrome P450 2D6 [4] = molecular target: T1, Cytochrome P450 2D6; test: Drug metabolism assessed as recombinant CYP2D6 (unknown origin)-mediated 3-(3-(pyridin-4-yl)-6-(4-(pyrrolidin-1-yl)piperidin-1-yl)imidazo[1,2-b]pyridazin-2-yl)phenol formation; format: ADME; conditions: recombinant enzyme
Cytochrome P450 2D6 [5] = molecular target: T1, Cytochrome P450 2D6; test: Drug metabolism assessed as recombinant CYP2D6 (unknown origin)-mediated 3-(3-(pyridin-4-yl)-6-(4-(pyrrolidin-1-yl)-3,4-dihydropyridin-1(2H)-yl)imidazo[1,2-b]pyridazin-2-yl)phenol formation; format: ADME; conditions: recombinant enzyme

T1 sequence (P10635 whole entry): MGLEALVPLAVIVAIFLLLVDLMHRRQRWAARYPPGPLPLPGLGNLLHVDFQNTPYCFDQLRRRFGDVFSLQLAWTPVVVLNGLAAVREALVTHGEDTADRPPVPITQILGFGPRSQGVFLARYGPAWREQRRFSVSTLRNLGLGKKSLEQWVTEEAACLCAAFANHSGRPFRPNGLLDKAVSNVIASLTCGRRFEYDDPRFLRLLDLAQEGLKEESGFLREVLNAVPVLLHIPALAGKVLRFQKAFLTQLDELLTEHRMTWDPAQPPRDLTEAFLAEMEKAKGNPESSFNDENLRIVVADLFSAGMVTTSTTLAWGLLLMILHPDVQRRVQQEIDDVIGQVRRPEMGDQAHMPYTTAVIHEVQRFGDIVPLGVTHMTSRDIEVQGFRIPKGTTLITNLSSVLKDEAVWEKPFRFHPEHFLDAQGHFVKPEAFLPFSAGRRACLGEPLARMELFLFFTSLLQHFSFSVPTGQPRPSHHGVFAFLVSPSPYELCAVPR
Sequence of Casein kinase I isoform epsilon (P49674 whole entry, canonical isoform): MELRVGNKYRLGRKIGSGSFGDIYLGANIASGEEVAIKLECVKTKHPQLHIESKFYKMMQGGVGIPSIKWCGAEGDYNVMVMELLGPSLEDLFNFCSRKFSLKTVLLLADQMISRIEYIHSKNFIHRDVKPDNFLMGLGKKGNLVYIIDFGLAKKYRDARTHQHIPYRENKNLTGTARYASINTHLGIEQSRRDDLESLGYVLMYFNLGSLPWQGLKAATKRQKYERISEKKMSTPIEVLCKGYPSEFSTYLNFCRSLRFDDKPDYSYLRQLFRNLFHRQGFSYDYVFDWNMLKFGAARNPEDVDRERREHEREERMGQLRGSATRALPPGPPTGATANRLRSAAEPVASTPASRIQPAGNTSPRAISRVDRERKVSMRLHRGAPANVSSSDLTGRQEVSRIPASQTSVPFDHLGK
Sequence of CYP3A4 (P08684 whole entry): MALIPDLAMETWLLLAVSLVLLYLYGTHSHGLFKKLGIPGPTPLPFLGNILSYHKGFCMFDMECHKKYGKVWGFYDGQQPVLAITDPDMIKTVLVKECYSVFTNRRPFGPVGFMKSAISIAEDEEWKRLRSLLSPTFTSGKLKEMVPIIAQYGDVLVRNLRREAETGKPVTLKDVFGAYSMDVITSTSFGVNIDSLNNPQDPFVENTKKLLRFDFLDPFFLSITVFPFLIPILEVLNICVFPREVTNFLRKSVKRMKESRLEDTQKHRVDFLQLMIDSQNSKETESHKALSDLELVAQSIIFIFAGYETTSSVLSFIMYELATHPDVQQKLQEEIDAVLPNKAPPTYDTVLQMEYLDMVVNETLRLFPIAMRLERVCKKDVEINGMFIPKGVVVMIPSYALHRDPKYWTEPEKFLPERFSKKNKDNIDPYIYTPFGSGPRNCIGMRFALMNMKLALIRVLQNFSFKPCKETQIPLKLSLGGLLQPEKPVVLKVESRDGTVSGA

IC50 [1] [nM]	metabolised [2] [%]	metabolised (CYP3A4) [%]	Drug metabolism (Cytochrome P450 2D6 [3])	Drug metabolism (Cytochrome P450 2D6 [4])	Drug metabolism (Cytochrome P450 2D6 [5])	SMILES
13.7	56	30	–	–	–	C[C@H]1CN(c2ccc3nc(-c4ccccc4)c(-c4ccncc4)n3n2)CCN1
43	25	15	–	–	–	CC1(C)CN(c2ccc3nc(-c4cc(F)cc(F)c4)c(-c4ccncc4)n3n2)CCN1
1	20	16	–	–	–	Fc1ccc(-c2nc3ccc(N4CCC(N5CCCC5)CC4)nn3c2-c2ccncc2)cc1
14.6	52	27	–	–	–	CC1(C)CN(c2ccc3nc(-c4ccc(F)cc4)c(-c4ccncc4)n3n2)CCN1
14.2	66	46	–	–	–	C[C@H]1CN(c2ccc3nc(-c4ccc(F)cc4)c(-c4ccncc4)n3n2)CCN1
8.6	13	5	–	–	–	Cc1cc(C)cc(-c2nc3ccc(N4CCNC(C)(C)C4)nn3c2-c2ccncc2)c1
70	18	1	–	–	–	c1ccc(-c2nc3ccc(N4CC5CC4CN5)nn3c2-c2ccncc2)cc1 (stereo not drawn)
26	38.5	24.5	Metabolite_Detected	Metabolite_Detected	Metabolite_Detected	c1ccc(-c2nc3ccc(N4CCC(N5CCCC5)CC4)nn3c2-c2ccncc2)cc1
15.7	18	0	–	–	–	Fc1ccc(-c2nc3ccc(N4CC5CC4CN5)nn3c2-c2ccncc2)cc1 (stereo not drawn)
4.6	57	15	–	–	–	CC1(C)CN(c2ccc3nc(-c4ccccc4)c(-c4ccncc4)n3n2)CCN1
